Results from PubChem BioAssay AID1918994 (Molecular Pharmacology Branch, DTP, NCI, 2023).

System: 292921-168-R-J2-PDC complex spheroid growth
Experiment: Anticancer human tumor 292921-168-R-J2-PDC patient-derived pancreatic carcinoma cell line growth inhibition [AhR]
Settings: for IC50: curve of first compound; for viability, T/C: stronger effect = lower value
Procedure, shortened: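 Agents were dosed in half-log steps down from roughly clinical Cmax, or from 10 microM where Cmax was unknown, alone and with AhR antagonists. Read-out: percent test/control growth of tumor spheroids containing HUVEC and MSC stromal cells.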

[1] = second compound 0.1 µM, first compound 0.00949 µM
[2] = second compound 0.1 µM, first compound 0.03 µM
[3] = second compound 0.1 µM, first compound 0.0949 µM
[4] = second compound 0.1 µM, first compound 0.3 µM
[5] = second compound 0.316 µM, first compound 0.00949 µM
[6] = second compound 0.316 µM, first compound 0.03 µM
[7] = second compound 0.316 µM, first compound 0.0949 µM
[8] = second compound 0.316 µM, first compound 0.3 µM
[9] = second compound 1 µM, first compound 0.00949 µM
[10] = second compound 1 µM, first compound 0.03 µM
[11] = second compound 1 µM, first compound 0.0949 µM
[12] = second compound 1 µM, first compound 0.3 µM
[13] = second compound 3.16 µM, first compound 0.00949 µM
[14] = second compound 3.16 µM, first compound 0.03 µM
[15] = second compound 3.16 µM, first compound 0.0949 µM
[16] = second compound 3.16 µM, first compound 0.3 µM
[17] = second compound 10 µM, first compound 0.00949 µM
[18] = second compound 10 µM, first compound 0.03 µM
[19] = second compound 10 µM, first compound 0.0949 µM
[20] = second compound 10 µM, first compound 0.3 µM
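Note: spheroids exposed to compounds for seven days after three days of growth.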

COc1ccc([C@@H](O)c2cc(-c3ncnc4cc(N5CCOCC5)ccc34)c(F)cc2Cl)nn1 + CC(CO)NC(=O)c1cc(-c2ccc(Cl)cc2)nn(-c2cnn(C)c2)c1=O gave an IC50 (second compound 0.1 µM) of 1810 nM, an IC50 (second compound 0.316 µM) of 1820 nM and an IC50 (second compound 1 µM) of 1910 nM. For the same compound, the IC50 (second compound 3.16 µM) was 1320 nM, the IC50 (second compound 10 µM) was 1060 nM and the viability, T/C (second compound 0.1 µM, first compound 0.0316 µM) was 94.5%. The viability, T/C (second compound 0.1 µM, first compound 0.1 µM) was 97.8%, the viability, T/C (second compound 0.1 µM, first compound 0.316 µM) was 86.6% and the viability, T/C (second compound 0.1 µM, first compound 1 µM) was 59.1%. It also gave a viability, T/C (second compound 0.1 µM, first compound 3.16 µM) of 41.9%, a viability, T/C (second compound 0.1 µM, first compound 10 µM) of 25.1% and a viability, T/C (second compound 0.316 µM, first compound 0.0316 µM) of 101%. It also gave a viability, T/C (second compound 0.316 µM, first compound 0.1 µM) of 95.1%, a viability, T/C (second compound 0.316 µM, first compound 0.316 µM) of 87% and a viability, T/C (second compound 0.316 µM, first compound 1 µM) of 60.5%. For the same compound, the viability, T/C (second compound 0.316 µM, first compound 3.16 µM) was 39.9%, the viability, T/C (second compound 0.316 µM, first compound 10 µM) was 24.7% and the viability, T/C (second compound 1 µM, first compound 0.0316 µM) was 102%. The viability, T/C (second compound 1 µM, first compound 0.1 µM) was 98.9%, the viability, T/C (second compound 1 µM, first compound 0.316 µM) was 78.4% and the viability, T/C (second compound 1 µM, first compound 1 µM) was 61.4%. The viability, T/C (second compound 1 µM, first compound 3.16 µM) was 42.2%, the viability, T/C (second compound 1 µM, first compound 10 µM) was 28.1% and the viability, T/C (second compound 3.16 µM, first compound 0.0316 µM) was 85.8%. The viability, T/C (second compound 3.16 µM, first compound 0.1 µM) was 82.6%, the viability, T/C (second compound 3.16 µM, first compound 0.316 µM) was 78.6% and the viability, T/C (second compound 3.16 µM, first compound 1 µM) was 52.9%. It also gave a viability, T/C (second compound 3.16 µM, first compound 3.16 µM) of 36%, a viability, T/C (second compound 3.16 µM, first compound 10 µM) of 24.3% and a viability, T/C (second compound 10 µM, first compound 0.0316 µM) of 68%. The viability, T/C (second compound 10 µM, first compound 0.1 µM) was 77.1%, the viability, T/C (second compound 10 µM, first compound 0.316 µM) was 68.9% and the viability, T/C (second compound 10 µM, first compound 1 µM) was 49.9%. For the same compound, the viability, T/C (second compound 10 µM, first compound 3.16 µM) was 31.9% and the viability, T/C (second compound 10 µM, first compound 10 µM) was 23.2%.

Nc1ncn(C2CC(O)C(CO)S2)c(=O)n1 (stereo not given) + CC(CO)NC(=O)c1cc(-c2ccc(Cl)cc2)nn(-c2cnn(C)c2)c1=O gave an IC50 (second compound 0.1 µM) greater than 300 nM, an IC50 (second compound 0.316 µM) greater than 300 nM and an IC50 (second compound 1 µM) greater than 300 nM. The IC50 (second compound 3.16 µM) was greater than 300 nM, the IC50 (second compound 10 µM) was greater than 300 nM and the viability, T/C (second compound 0.1 µM, first compound 0.000949 µM) was 94.1%. The viability, T/C (second compound 0.1 µM, first compound 0.003 µM) was 94%, the viability, T/C [1] was 98.8% and the viability, T/C [2] was 91%. The viability, T/C [3] was 88.9%, the viability, T/C [4] was 73.5% and the viability, T/C (second compound 0.316 µM, first compound 0.000949 µM) was 92.3%. For the same compound, the viability, T/C (second compound 0.316 µM, first compound 0.003 µM) was 95%, the viability, T/C [5] was 96.3% and the viability, T/C [6] was 92.6%. The viability, T/C [7] was 82.7%, the viability, T/C [8] was 77.7% and the viability, T/C (second compound 1 µM, first compound 0.000949 µM) was 97.7%. For the same compound, the viability, T/C (second compound 1 µM, first compound 0.003 µM) was 103%, the viability, T/C [9] was 102% and the viability, T/C [10] was 91.8%. For the same compound, the viability, T/C [11] was 87.8%, the viability, T/C [12] was 80.7% and the viability, T/C (second compound 3.16 µM, first compound 0.000949 µM) was 90.7%. The viability, T/C (second compound 3.16 µM, first compound 0.003 µM) was 88.3%, the viability, T/C [13] was 89.4% and the viability, T/C [14] was 83.2%. For the same compound, the viability, T/C [15] was 82.7%, the viability, T/C [16] was 72.2% and the viability, T/C (second compound 10 µM, first compound 0.000949 µM) was 71.9%. The viability, T/C (second compound 10 µM, first compound 0.003 µM) was 67.7%, the viability, T/C [17] was 67.6% and the viability, T/C [18] was 67.4%. It also gave a viability, T/C [19] of 61.9% and a viability, T/C [20] of 60.5%.

Work on O=C(C=Cn1cnc(-c2cc(C(F)(F)F)cc(C(F)(F)F)c2)n1)NNc1cnccn1 + CC(CO)NC(=O)c1cc(-c2ccc(Cl)cc2)nn(-c2cnn(C)c2)c1=O yielded an IC50 (second compound 0.1 µM) of 88.1 nM, an IC50 (second compound 0.316 µM) of 106 nM and an IC50 (second compound 1 µM) of 97.7 nM. For the same compound, the IC50 (second compound 3.16 µM) was 80.2 nM, the IC50 (second compound 10 µM) was 49.8 nM and the viability, T/C [1] was 85.4%. The viability, T/C [2] was 91%, the viability, T/C [3] was 47% and the viability, T/C [4] was 31.1%. The viability, T/C (second compound 0.1 µM, first compound 0.949 µM) was 22.5%, the viability, T/C (second compound 0.1 µM, first compound 3 µM) was 13.4% and the viability, T/C [5] was 84.6%. The viability, T/C [6] was 75.5%, the viability, T/C [7] was 49.8% and the viability, T/C [8] was 32%. The viability, T/C (second compound 0.316 µM, first compound 0.949 µM) was 20.2%, the viability, T/C (second compound 0.316 µM, first compound 3 µM) was 13.2% and the viability, T/C [9] was 93.6%. For the same compound, the viability, T/C [10] was 76.5%, the viability, T/C [11] was 50.5% and the viability, T/C [12] was 28.9%. It also gave a viability, T/C (second compound 1 µM, first compound 0.949 µM) of 19.1%, a viability, T/C (second compound 1 µM, first compound 3 µM) of 14.3% and a viability, T/C [13] of 84.5%. The viability, T/C [14] was 67.8%, the viability, T/C [15] was 47% and the viability, T/C [16] was 29.6%. It also gave a viability, T/C (second compound 3.16 µM, first compound 0.949 µM) of 17.7%, a viability, T/C (second compound 3.16 µM, first compound 3 µM) of 14.7% and a viability, T/C [17] of 66.2%. It also gave a viability, T/C [18] of 58.9%, a viability, T/C [19] of 39.1% and a viability, T/C [20] of 22.4%. It also gave a viability, T/C (second compound 10 µM, first compound 0.949 µM) of 18.5% and a viability, T/C (second compound 10 µM, first compound 3 µM) of 13.2%.
